From BindingDB's records for doi:10.1016/j.ejmech.2008.01.010 (Universit&#233, 2008)
Where a name gives a salt, the structure may show the parent alone.

Columns and labels:
[1] = biological target: Vascular endothelial growth factor receptor 2 (Homo sapiens, UniProt P35968); test: Inhibition of KDR
[2] = biological target: Insulin-like growth factor 1 receptor (Homo sapiens, UniProt P08069); test: Inhibition of IGF1R
[3] = biological target: Hepatocyte growth factor receptor (Homo sapiens, UniProt P08581); test: Inhibition of cMet
[4] = biological target: Proto-oncogene tyrosine-protein kinase receptor Ret (Homo sapiens, UniProt P07949); test: Inhibition of Ret
[5] = biological target: Proto-oncogene tyrosine-protein kinase Src (Homo sapiens, UniProt P12931); test: Inhibition of Src
[6] = biological target: Tyrosine-protein kinase ABL1 (Homo sapiens, UniProt P00519); test: Inhibition of c-Abl
Tyrosine-protein kinase ABL1, sequence (P00519 whole entry): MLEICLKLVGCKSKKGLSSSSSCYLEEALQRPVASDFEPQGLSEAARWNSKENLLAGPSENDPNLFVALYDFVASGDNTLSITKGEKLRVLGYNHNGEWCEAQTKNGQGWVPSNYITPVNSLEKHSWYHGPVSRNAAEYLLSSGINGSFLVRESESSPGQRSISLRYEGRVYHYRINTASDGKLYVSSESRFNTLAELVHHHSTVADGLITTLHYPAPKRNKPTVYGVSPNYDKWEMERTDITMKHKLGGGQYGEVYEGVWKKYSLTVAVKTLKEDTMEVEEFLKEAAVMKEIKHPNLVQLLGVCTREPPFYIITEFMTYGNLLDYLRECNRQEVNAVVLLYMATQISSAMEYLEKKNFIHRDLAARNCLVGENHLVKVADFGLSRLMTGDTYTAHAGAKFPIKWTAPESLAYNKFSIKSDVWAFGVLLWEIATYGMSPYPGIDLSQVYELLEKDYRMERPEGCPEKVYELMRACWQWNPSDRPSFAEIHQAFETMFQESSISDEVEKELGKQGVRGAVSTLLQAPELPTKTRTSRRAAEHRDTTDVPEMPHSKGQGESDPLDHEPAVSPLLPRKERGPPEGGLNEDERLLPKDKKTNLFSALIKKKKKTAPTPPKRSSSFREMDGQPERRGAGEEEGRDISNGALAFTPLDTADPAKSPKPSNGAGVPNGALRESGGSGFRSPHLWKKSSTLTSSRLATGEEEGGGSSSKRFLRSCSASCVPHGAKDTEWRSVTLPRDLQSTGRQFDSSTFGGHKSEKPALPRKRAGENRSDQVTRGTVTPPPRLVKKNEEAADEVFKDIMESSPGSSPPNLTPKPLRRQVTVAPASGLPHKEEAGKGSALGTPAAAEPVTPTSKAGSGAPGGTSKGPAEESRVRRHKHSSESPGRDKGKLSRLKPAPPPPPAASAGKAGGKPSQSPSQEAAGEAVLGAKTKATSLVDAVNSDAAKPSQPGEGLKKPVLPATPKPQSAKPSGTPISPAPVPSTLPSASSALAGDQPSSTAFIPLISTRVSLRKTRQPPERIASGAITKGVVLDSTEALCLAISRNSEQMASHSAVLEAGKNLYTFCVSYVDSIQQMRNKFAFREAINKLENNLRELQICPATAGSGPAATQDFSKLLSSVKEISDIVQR

Vascular endothelial growth factor receptor 2, sequence (P35968 whole entry): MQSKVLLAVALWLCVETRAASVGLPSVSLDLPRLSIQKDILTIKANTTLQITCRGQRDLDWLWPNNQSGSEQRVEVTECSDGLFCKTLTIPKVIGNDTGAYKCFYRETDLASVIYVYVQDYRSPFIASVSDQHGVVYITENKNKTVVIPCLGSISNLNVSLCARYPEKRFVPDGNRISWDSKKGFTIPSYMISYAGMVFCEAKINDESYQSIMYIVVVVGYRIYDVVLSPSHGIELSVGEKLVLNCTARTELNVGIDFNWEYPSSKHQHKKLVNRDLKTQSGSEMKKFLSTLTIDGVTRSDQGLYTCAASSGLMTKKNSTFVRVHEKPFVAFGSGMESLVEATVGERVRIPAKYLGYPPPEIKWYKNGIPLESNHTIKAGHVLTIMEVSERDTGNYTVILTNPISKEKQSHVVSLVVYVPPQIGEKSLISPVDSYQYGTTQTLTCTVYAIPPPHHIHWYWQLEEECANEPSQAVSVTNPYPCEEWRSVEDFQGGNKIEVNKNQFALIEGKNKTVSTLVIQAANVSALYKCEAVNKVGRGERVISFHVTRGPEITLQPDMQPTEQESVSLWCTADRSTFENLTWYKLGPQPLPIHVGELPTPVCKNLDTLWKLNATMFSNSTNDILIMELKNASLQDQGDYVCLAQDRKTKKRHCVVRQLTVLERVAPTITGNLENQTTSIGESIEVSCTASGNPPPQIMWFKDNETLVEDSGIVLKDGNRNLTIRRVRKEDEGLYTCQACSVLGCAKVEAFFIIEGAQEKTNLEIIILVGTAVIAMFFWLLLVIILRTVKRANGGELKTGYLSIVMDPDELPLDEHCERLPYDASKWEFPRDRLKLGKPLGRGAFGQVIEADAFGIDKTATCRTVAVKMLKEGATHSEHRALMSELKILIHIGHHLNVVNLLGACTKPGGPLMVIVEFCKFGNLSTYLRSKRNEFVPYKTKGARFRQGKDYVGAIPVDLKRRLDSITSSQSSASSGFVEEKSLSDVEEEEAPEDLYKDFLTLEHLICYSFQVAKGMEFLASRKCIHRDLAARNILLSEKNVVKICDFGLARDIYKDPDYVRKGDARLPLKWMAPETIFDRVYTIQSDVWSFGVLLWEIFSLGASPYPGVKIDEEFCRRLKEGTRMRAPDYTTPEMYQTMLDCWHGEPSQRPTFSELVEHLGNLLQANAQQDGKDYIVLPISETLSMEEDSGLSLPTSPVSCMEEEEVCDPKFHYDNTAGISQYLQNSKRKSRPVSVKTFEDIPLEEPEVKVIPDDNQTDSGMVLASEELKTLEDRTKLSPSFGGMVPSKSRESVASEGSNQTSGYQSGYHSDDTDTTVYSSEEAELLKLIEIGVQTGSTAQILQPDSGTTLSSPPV
Proto-oncogene tyrosine-protein kinase Src, sequence (P12931 2-536 limits assumed): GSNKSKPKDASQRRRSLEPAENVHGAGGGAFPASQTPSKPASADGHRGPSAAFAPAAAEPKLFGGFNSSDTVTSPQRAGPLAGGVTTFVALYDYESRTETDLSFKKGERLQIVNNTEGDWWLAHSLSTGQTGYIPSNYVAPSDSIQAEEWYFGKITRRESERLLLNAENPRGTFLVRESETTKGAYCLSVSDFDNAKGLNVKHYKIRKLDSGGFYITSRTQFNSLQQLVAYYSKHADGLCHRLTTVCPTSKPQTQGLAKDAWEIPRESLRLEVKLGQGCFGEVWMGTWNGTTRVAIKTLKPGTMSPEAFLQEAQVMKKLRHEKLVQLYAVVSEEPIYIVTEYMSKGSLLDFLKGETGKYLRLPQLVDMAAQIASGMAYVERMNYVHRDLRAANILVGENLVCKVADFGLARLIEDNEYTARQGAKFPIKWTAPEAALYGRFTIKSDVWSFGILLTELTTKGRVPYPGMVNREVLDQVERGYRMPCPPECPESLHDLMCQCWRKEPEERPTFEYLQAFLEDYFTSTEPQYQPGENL
Insulin-like growth factor 1 receptor, sequence (P08069 31-736 limits assumed): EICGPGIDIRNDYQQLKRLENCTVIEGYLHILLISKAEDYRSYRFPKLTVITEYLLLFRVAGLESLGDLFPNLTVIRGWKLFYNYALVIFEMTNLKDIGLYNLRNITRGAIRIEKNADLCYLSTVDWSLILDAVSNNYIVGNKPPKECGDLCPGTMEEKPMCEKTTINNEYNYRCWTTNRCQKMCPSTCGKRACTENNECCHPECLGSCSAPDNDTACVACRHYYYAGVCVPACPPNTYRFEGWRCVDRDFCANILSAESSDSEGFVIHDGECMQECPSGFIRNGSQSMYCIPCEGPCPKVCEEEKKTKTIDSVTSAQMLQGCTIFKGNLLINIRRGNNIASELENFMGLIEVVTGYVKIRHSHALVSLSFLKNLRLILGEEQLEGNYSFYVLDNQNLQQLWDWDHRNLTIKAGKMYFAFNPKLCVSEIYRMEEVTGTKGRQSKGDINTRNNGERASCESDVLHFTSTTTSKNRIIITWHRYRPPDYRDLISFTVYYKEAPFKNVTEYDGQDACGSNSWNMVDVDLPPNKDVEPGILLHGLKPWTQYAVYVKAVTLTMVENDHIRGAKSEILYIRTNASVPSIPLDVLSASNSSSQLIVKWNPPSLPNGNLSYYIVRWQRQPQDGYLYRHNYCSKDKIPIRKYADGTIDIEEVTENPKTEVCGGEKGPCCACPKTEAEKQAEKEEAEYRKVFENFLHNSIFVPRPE
Insulin-like growth factor 1 receptor, sequence (P08069 741-1367 limits assumed): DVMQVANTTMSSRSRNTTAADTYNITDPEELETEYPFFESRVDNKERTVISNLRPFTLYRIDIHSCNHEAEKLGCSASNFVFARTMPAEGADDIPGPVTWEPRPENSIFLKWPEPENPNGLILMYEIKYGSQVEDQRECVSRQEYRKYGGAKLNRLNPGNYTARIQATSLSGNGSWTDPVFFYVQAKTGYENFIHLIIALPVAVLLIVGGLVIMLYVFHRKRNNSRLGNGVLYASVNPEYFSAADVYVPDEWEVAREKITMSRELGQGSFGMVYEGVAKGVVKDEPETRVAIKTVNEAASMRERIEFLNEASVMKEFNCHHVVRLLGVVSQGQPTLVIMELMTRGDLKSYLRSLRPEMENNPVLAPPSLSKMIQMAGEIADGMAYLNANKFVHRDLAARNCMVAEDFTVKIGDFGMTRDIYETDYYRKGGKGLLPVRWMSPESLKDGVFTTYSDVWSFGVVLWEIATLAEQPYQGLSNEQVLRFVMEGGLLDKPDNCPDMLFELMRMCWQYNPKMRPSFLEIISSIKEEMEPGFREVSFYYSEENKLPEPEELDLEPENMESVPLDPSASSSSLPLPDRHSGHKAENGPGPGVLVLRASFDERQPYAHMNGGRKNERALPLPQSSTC

| IC50 [1] [µM] | IC50 [2] [µM] | IC50 [3] [µM] | IC50 [4] [µM] | IC50 [5] [µM] | IC50 [6] [µM] | Structure (SMILES) |
| --- | --- | --- | --- | --- | --- | --- |
| > 10 | > 10 | > 10 | > 10 | > 10 | > 10 | N[C@@H](CCCN=CC1C(=O)Nc2ccccc21)C(=O)O (stereo partly drawn) [(Z/E)-(2S)-2-amino-5-([(2-oxo-indolin-3-ylidene)methyl]amino)pentanoic acid hydrochloride] |
| > 10 | > 10 | > 10 | > 10 | > 10 | > 10 | N[C@@H](CCCCN=CC1C(=O)Nc2ccccc21)C(=O)O (stereo partly drawn) [(Z/E)-(2S)-2-amino-6-([(2-oxo-indolin-3-ylidene)methyl]amino)hexanoic acid hydrochloride] |
| > 10 | > 10 | > 10 | > 10 | > 10 | > 10 | N[C@@H](CCCCN=CC1C(=O)Nc2ccc(Br)cc21)C(=O)O (stereo partly drawn) [(Z/E)-(2S)-2-amino-6-([(5-bromo-2-oxo-indolin-3-ylidene)methyl]amino)hexanoic acid hydrochloride] |
